Results on 12 compounds are retold here after ChEMBL document CHEMBL1201862, “PubChem BioAssay data set” (2004).

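Exposure lasted 48 hours, with cells grown in 96-well plates and compounds tested at five concentrations. Abbreviation: GI50, concentration required for 50% inhibition of growth.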 Active and inactive are the calls of the source. Rule as the data show it: active = GI50 up to about 1.1 µM and inactive = higher.

Some test systems named below: NCI-H522; HOP-62; EKVX; OVCAR-4; NCI-H460; OVCAR-3; HCC 2998; SN12C; DU-145; A549; SR; SF-268; TK-10; MOLT-4; OVCAR-5; MDA-MB-435; MCF7; PC-3; MDA-N.
What all share (assay): inhibition of tumour cell growth, NCI panel, 48 h

Turning to `CN(C(=O)c1ccncc1)c1ccccc1`, the GI50 in the test on NCI-H522, with HOP-62, in the test with EKVX, with OVCAR-4, with NCI-H460 and with OVCAR-3 was > 100 µM (inactive) each time. Moreover, the GI50 in the test with HCC 2998, in the test with SN12C, in the test on DU-145, with A549, in the test with SR and with SF-268 was > 100 µM (inactive) throughout. In addition, the GI50 in the test with TK-10, in the test on MOLT-4, in the test with OVCAR-5, in the test on MDA-MB-435, with MCF7 and with PC-3 was > 100 µM (inactive) each time.
As for `CN1CC2CN(Cc3ccccc3)CCN2c2cccnc21` (stereo unspecified), the GI50 with NCI-H522 was 28.8 µM (inactive); in the test on HOP-62 it was > 100 µM (inactive); in the test with EKVX it was 53 µM (inactive); in the test with OVCAR-4, 82.6 µM (inactive); with NCI-H460, 39.1 µM (inactive); with OVCAR-3 it was 41.1 µM (inactive). Besides, the GI50 in the test with A549 is > 100 µM (inactive); in the test with SR, 25.8 µM (inactive); in the test on SF-268 it was 54.3 µM (inactive); in the test on TK-10, > 100 µM (inactive); in the test on MOLT-4 it was 35.6 µM (inactive); in the test with OVCAR-5, > 100 µM (inactive). Further, the GI50 is 38.6 µM (inactive) in the test on MDA-N, 30.5 µM (inactive) with MDA-MB-435, 39.9 µM (inactive) in the test on MCF7 and 45.9 µM (inactive) with PC-3.
Consider `COC(=O)[C@H](CCSC)NC(=O)c1ccc(CNC(=O)/C=C/c2cccc(Oc3ccccc3)c2)cc1`, for which the GI50 in the test on NCI-H522 was 25.8 µM (inactive); in the test on HOP-62 it was > 100 µM (inactive); in the test with EKVX, 67.3 µM (inactive); in the test with OVCAR-4 it was 33.6 µM (inactive); with NCI-H460, 60.5 µM (inactive); with OVCAR-3, 23.3 µM (inactive). For the same compound, the GI50 with HCC 2998 is 28.5 µM (inactive); in the test with SN12C, 60.5 µM (inactive); with DU-145, > 100 µM (inactive); in the test on A549 it was 98.4 µM (inactive); in the test with SR, 19.7 µM (inactive); in the test on SF-268, > 59.2 µM (inactive). Also, the GI50 is > 45.3 µM (inactive) in the test with TK-10; 8.83 µM (inactive) in the test on MOLT-4; > 100 µM (inactive) with OVCAR-5; 14.3 µM (inactive) with MDA-MB-435; 38.6 µM (inactive) with MCF7; > 75 µM (inactive) in the test on PC-3.
Turning to `Fc1cc(-c2ncc(Cl)cc2Cl)c2cccccc1-2`, the GI50 in the test on NCI-H522, with HOP-62, with EKVX, in the test with NCI-H460, in the test with OVCAR-3 and in the test on HCC 2998 was > 100 µM (inactive) throughout. For the same compound, the GI50 in the test with DU-145, in the test with A549, in the test on SF-268, in the test on TK-10, with OVCAR-5 and in the test on MDA-N was > 100 µM (inactive) throughout. Moreover, the GI50 is 35.7 µM (inactive) in the test on MCF7 and > 100 µM (inactive) with PC-3.
For the compound `Cc1cccc2c1Oc1ncccc1C2NC(=O)CN(C)C` (stereo unspecified), the GI50 in the test with NCI-H522, with EKVX, with OVCAR-4, in the test on NCI-H460, with OVCAR-3 and in the test with HCC 2998 was > 10 µM (inactive) each time. The GI50 with SN12C, with A549, in the test with SR, in the test with SF-268, in the test with TK-10 and with MOLT-4 was > 10 µM (inactive) each time. For the same compound, the GI50 in the test on OVCAR-5, in the test with MDA-MB-435, in the test with MCF7 and in the test on PC-3 was > 10 µM (inactive) throughout.
Take `Nc1nc(CCl)nc(N2CCOCC2)n1`: the GI50 was 3.4 µM (inactive) with NCI-H522; 18.2 µM (inactive) in the test on HOP-62; 17.6 µM (inactive) with EKVX; 17.4 µM (inactive) with OVCAR-4; 17.7 µM (inactive) in the test on NCI-H460; > 10 µM (inactive) with OVCAR-3. Further, the GI50 was 17.7 µM (inactive) in the test with HCC 2998; 36.1 µM (inactive) in the test on SN12C; 38.4 µM (inactive) in the test with DU-145; > 100 µM (inactive) in the test on A549; 21.3 µM (inactive) with SR; 33.7 µM (inactive) in the test with SF-268. In addition, the GI50 in the test with TK-10 is 62.7 µM (inactive); in the test on MOLT-4 it was 26.9 µM (inactive); in the test on OVCAR-5 it was 19.9 µM (inactive); in the test on MDA-MB-435, 29.2 µM (inactive); in the test with MCF7, 28.6 µM (inactive); with PC-3, 72.1 µM (inactive).
Take `C[C@H]1CC[C@@]2(OC1)O[C@H]1C[C@H]3[C@@H]4CC[C@@H]5C[C@@H](OC6OC(CO)C(O)C(O)C6OC6OC(CO)C(O)C(O)C6O)CC[C@]5(C)[C@H]4CC[C@]3(C)[C@H]1[C@@H]2C` (stereo partly specified): the GI50 is 2.71 µM (inactive) in the test with NCI-H522; 2.25 µM (inactive) with HOP-62; 2.08 µM (inactive) with EKVX; 2.33 µM (inactive) in the test with OVCAR-4; 2.16 µM (inactive) in the test on OVCAR-3; 2.02 µM (inactive) with HCC 2998. Also, the GI50 with SN12C is 2.07 µM (inactive); in the test on DU-145, 2.34 µM (inactive); in the test on A549 it was 2 µM (inactive); in the test on SR, 2.07 µM (inactive); with SF-268, 2.3 µM (inactive); with TK-10, 1.94 µM (inactive). Besides, the GI50 in the test with MOLT-4 was 1.84 µM (inactive); with OVCAR-5 it was 1.81 µM (inactive); with MDA-MB-435, 2.15 µM (inactive); in the test with MCF7, 2.1 µM (inactive); in the test on PC-3, 2.13 µM (inactive).
Turning to `Cc1cc(N(CCC#N)CCC#N)ccc1C(/N=N\c1ccc(C(=O)O)cc1)=N\NC(=O)c1cc(Cl)ccc1O`, the GI50 in the test on NCI-H522 is 17.1 µM (inactive); with HOP-62 it was 27 µM (inactive); in the test on EKVX, 33 µM (inactive); in the test with OVCAR-4, 29.2 µM (inactive); with NCI-H460, 36 µM (inactive); in the test with OVCAR-3 it was 56.2 µM (inactive). Besides, the GI50 in the test with HCC 2998 is > 100 µM (inactive); with SN12C it was > 100 µM (inactive); in the test on DU-145, 64 µM (inactive); with A549, 42.2 µM (inactive); in the test on SR, 62.8 µM (inactive); with SF-268, 19.2 µM (inactive). Moreover, the GI50 is 40.2 µM (inactive) in the test with TK-10; > 100 µM (inactive) with MOLT-4; > 100 µM (inactive) with OVCAR-5; > 100 µM (inactive) in the test with MDA-MB-435; 32.4 µM (inactive) in the test on MCF7; 61 µM (inactive) in the test with PC-3.
Turning to `CCCN1C(=O)/C(=C\c2ccc(OC)c(OC)c2)S/C1=N\c1ccccc1`, the GI50 in the test on NCI-H522 was > 100 µM (inactive); in the test with HOP-62, 17.6 µM (inactive); in the test with EKVX, 67.9 µM (inactive); in the test on OVCAR-4, > 100 µM (inactive); in the test on NCI-H460, > 100 µM (inactive); with OVCAR-3, > 100 µM (inactive). Also, the GI50 with HCC 2998 was > 100 µM (inactive); in the test on SN12C, > 100 µM (inactive); in the test with A549, > 100 µM (inactive); in the test with SR, > 100 µM (inactive); in the test with SF-268, 38.6 µM (inactive); in the test with TK-10 it was 31.1 µM (inactive). For the same compound, the GI50 in the test with MOLT-4, with OVCAR-5, in the test with MDA-N, with MDA-MB-435, in the test on MCF7 and with PC-3 was > 100 µM (inactive) each time.
Consider `[N-]=[N+]=Nc1c(-c2ccccc2)c(Cl)nc2ccccc12`, for which the GI50 in the test on NCI-H522 was 18.1 µM (inactive); with HOP-62, 34.1 µM (inactive); in the test with EKVX it was 33 µM (inactive); in the test on OVCAR-4 it was 21.9 µM (inactive); in the test on NCI-H460, 31.5 µM (inactive); in the test on OVCAR-3 it was 44.6 µM (inactive). In addition, the GI50 is 44.2 µM (inactive) with HCC 2998; 32.5 µM (inactive) with SN12C; 29.9 µM (inactive) in the test on A549; 39.5 µM (inactive) in the test on SR; 48.1 µM (inactive) with SF-268; 74.5 µM (inactive) with TK-10. The GI50 in the test with MOLT-4 was 51.4 µM (inactive); with OVCAR-5, > 100 µM (inactive); in the test with MDA-N, 27 µM (inactive); in the test with MDA-MB-435 it was 38.3 µM (inactive); with PC-3, 26.2 µM (inactive).
Consider `COc1cc2c(cc1C[C@H]1[C@@H]3C[C@H]4c5c(c6ccccc6n5C)C[C@@H]([C@@H]3CO[C@]1(C)OC(C)=O)N4C)c1c(n2C)C2C[C@H]3C(C(C)=O)=COC[C@H]3[C@H](C1)N2C`, for which the GI50 in the test on HOP-62 was 1.56 µM (inactive); in the test with EKVX, 0.403 µM (active); with OVCAR-4, 3.8 µM (inactive); in the test with NCI-H460, 3.38 µM (inactive); in the test on OVCAR-3, 2.66 µM (inactive); in the test on HCC 2998, 0.0102 µM (active). For the same compound, the GI50 in the test on SN12C is 6.24 µM (inactive); in the test on DU-145, 6.38 µM (inactive); in the test with A549, > 25 µM (inactive); in the test on SR it was 2.64 µM (inactive); in the test with SF-268 it was 2.69 µM (inactive); in the test on TK-10, 3.62 µM (inactive). The GI50 with MOLT-4 was 2.44 µM (inactive); with OVCAR-5 it was 4.35 µM (inactive); with MDA-MB-435, > 25 µM (inactive); in the test with MCF7, 7.48 µM (inactive); with PC-3, 0.462 µM (active).
Consider `Oc1cc(-c2cccc(C(F)(F)F)c2)nc2cc3c(cc12)OCO3`, for which the GI50 in the test with NCI-H522 is 0.536 µM (active); with HOP-62, 1.83 µM (inactive); in the test on EKVX it was 1.5 µM (inactive); with NCI-H460, 1.39 µM (inactive); with HCC 2998, 3.44 µM (inactive); in the test on SN12C, 8.75 µM (inactive). The GI50 with A549 was 3.97 µM (inactive); in the test with SR, 0.55 µM (active); with TK-10 it was > 50 µM (inactive); in the test on MOLT-4, 2.82 µM (inactive); in the test on OVCAR-5 it was 1.49 µM (inactive); in the test with MDA-MB-435, 0.935 µM (active). The results for the GI50 with MCF7 and with PC-3 were 2.23 µM (inactive) and 0.365 µM (active), respectively.
